Entries after “also recorded” stand apart in the source; their conditions may differ. Counter-ions that a name gives are not always drawn.
Legend:
Assay type in all cases: in vivo
β-adrenergic receptors [1] = experiment: Action on the β-adrenergic receptors: inhibition of cardiac effects of stimulation of the right stellar ganglion in anaesthetised dogs; conditions: compound 5 mg/kg intravenous, average, dog
Description: It then seemed interesting, using compound No. 1, to seek the existence of an action on the β-adrenergic receptors in the manner outlined below:
(§1) A stimulating electrode was placed in position on the right stellar ganglion of dogs anaesthetised as described above and for which there were recorded:
(§2) a. The arterial pressure,
(§3) b. Ventricular inotropism (the amplitude of contraction of the right ventricle), and
(§4) c. The rate of heart-beat.
(§5) The chest of the animals were not open and they were breathing freely.
The β-adrenergic receptors, both cardiac and vascular, were stimulated by electrical stimulation of the right stellar ganglion or by intravenous injection with isoprenaline (5 μg/kg). The measurements were taken both before and after administration of compound No. 1 by the intravenous route in a dose of 5 mg/kg bodyweight.
The following Table III gives the average percentage inhibition of the cardiovascular effects of isoprenaline and of the cardiac effects of the stimulation of the right stellar ganglion.

β-adrenergic receptors [2] = experiment: Action on the β-adrenergic receptors: inhibition of cardiovascular effects of isoprenaline in anaesthetised dogs; conditions: dog, compound 5 mg/kg intravenous
Description: as §1, §2, §3, §4, §5
The β-adrenergic receptors, both cardiac and vascular, were stimulated by electrical stimulation of the right stellar ganglion or by intravenous injection with isoprenaline (5 μg/kg).

[3] = Cardiovascular activity on the chloralose-anaesthetised, artificially respirated dog (coronary sinus output, Pv O2, contraction amplitude, arterial pressure, rate of heart-beat); conditions: for AMPLITUDE OF VENTRICULAR CONTRACTION / ARTERIAL PRESSURE / CORONARY OUTPUT / RATE OF HEART-BEAT / SINUSAL Pv O2: maximum percentage variation relative to pre-treatment values
Description: The pharmacological activity of the compounds of the invention in the cardiovascular field was determined on the dog in the manner described below:
An incision is made in the right-hand chest wall of an animal, which has been anaesthetised with chloralose and given artificial respiration, to enable the blood from the venus sinus to be drawn off and the apparatus required to record the following parameters to be inserted in position:
a. Output of the coronary sinus;
b. Pv O2 of the blood from the coronary sinus; and
c. Amplitude of the contractions of the right ventricule.
At the same there were also measured:
d. Arterial pressure in a main carotid artery: and
e. The rate of heart-beat determined cardiotachometrically.
Table II which follows records the determinations made of the various parameters, the results being expressed as a maximum percentage variation relative to the pre-treatment values.

[4] = isoprenaline 5 ug/kg intravenous, average

CC(C)COCC(CN1CCCC1)N(Cc1ccccc1)c1ccccc1 (centres unmarked) [Compound 1, 1-(3-isobutoxy-2-(phenylbenzyl)-amino)-propyl-pyrrolidino-hydrochloride]
PERCENTAGE INHIBITION OF Positive inotropic effect (β-adrenergic receptors [1]): -21.3% | PERCENTAGE INHIBITION OF Rate of Heart-beat (β-adrenergic receptors [1]): -30% | effect on stimulation of the β-adrenergic receptors (in words) (β-adrenergic receptors [2]; isoprenaline or right stellar ganglion stimulation, 5 mg/kg): partial inhibiting effect; also recorded: inhibiting effects with respect to the stimulation of the β-adrenergic receptors | PERCENTAGE INHIBITION OF Hypotension (β-adrenergic receptors [2]; [4]): -54% | PERCENTAGE INHIBITION OF Positive inotropic effect (β-adrenergic receptors [2]; [4]): -46.5% | PERCENTAGE INHIBITION OF Rate of Heart-beat (β-adrenergic receptors [2]; [4]): -32.7% | AMPLITUDE OF VENTRICULAR CONTRACTION ([3]; 2.5 mg/kg intravenous): -0.7% | ARTERIAL PRESSURE ([3]; 2.5 mg/kg intravenous): -39.8% | CORONARY OUTPUT ([3]; 2.5 mg/kg intravenous): +51.2% | RATE OF HEART-BEAT ([3]; 2.5 mg/kg intravenous): -28.6% | SINUSAL Pv O2 ([3]; 2.5 mg/kg intravenous): +119.2% | AMPLITUDE OF VENTRICULAR CONTRACTION ([3]; 5 mg/kg intravenous): -22.3% | ARTERIAL PRESSURE ([3]; 5 mg/kg intravenous): -40.2% | CORONARY OUTPUT ([3]; 5 mg/kg intravenous): +36.9% | RATE OF HEART-BEAT ([3]; 5 mg/kg intravenous): -31.8% | SINUSAL Pv O2 ([3]; 5 mg/kg intravenous): +120.8% | oxygen content of the venous cardiac blood (in words) ([3]; intravenous): very considerable increase in the oxygen content of the venous cardiac blood
